From patent US20240131168A1, “NAPHTHALENE RING-CONTAINING COMPOUND, PHARMACEUTICAL COMPOSITION CONTAINING SAME, AND USE THEREOF” (JIANGSU YAHONG MEDITECH CO., LTD., priority 2021, published 2024)

Legend:
MCF-7 = test: CellTiter-Glo cell proliferation inhibition, MCF-7 (Effect Example 2); type: cell-based; settings: Homo sapiens, MCF7, 144 h, MCF-7 (CTG), 6 days, starting concentration 10 μM; for inhibition at up to 10 µM: read-out: IH % max (maximum inhibition percentage)
Summary of the method: (§1)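 MCF-7, TamR-MCF-7, and CRISPR-edited MCF-7 ER D538G or Y537S cells were seeded at 1,000 or 2,000 cells/well in EMEM and cultured 24 h. They were then exposed to a 4-fold, 10-point series (top 10 µM before addition to wells) for 6 days or 72 h at 37 °C. CellTiter-Glo luminescence gave IC50 and maximum % inhibition.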

TamR-MCF-7 = test: CellTiter-Glo cell proliferation inhibition, TamR-MCF-7; type: cell-based; settings: 144 h, TamR-MCF-7 (CTG), 6 days, starting concentration 10 μM; for inhibition at up to 10 µM: read-out: IH % max (maximum inhibition percentage)
Summary of the method: as §1

MCF-7 ER^D538G = test: CellTiter-Glo cell proliferation inhibition, MCF-7 ER^D538G; type: cell-based; settings: Homo sapiens, MCF7, 144 h, MCF-7 ER^D538G (CTG), 6 days, starting concentration 10 μM; for inhibition at up to 10 µM: read-out: IH % max (maximum inhibition percentage)
Summary of the method: as §1

MCF-7 ER^Y537S = test: CellTiter-Glo cell proliferation inhibition, MCF-7 ER^Y537S; type: cell-based; settings: Homo sapiens, MCF7, 144 h, MCF-7 ER^Y537S (CTG), 6 days, starting concentration 10 μM; for inhibition at up to 10 µM: read-out: IH % max (maximum inhibition percentage)
Summary of the method: as §1

MDA-MB-231 = test: CellTiter-Glo cell proliferation inhibition, MDA-MB-231; type: cell-based; settings: Homo sapiens, 144 h, MDA-MB-231 (CTG), 6 days, starting concentration 10 μM; for inhibition at up to 10 µM: read-out: IH % max (maximum inhibition percentage)
From the text: 1. Cell line • (1) Breast cancer cell lines and their culture media: • MCF-7 (ATCC; Cat. No.: HTB-22), a Luminal A breast cancer cell; • TamR-MCF-7 (ATCC; Cat. No.: CRL-3435), a breast cancer cell; • MCF-7 ER^D538G: a Luminal A breast cancer cell obtained by constructing MCF-7 (ATCC; Cat. No.: HTB-22) using CRISPR-Cas9 gene editing technology; • MCF-7 ER^Y537S: a Luminal A breast cancer cell obtained by constructing MCF-7 (ATCC; Cat. No.: HTB-22) using CRISPR-Cas9 gene editing technology; • MDA-MB-231: (manufacturer: Nanjing CoBioer Biosciences Co., Ltd.), a triple-negative breast cancer cell; • MDA-MB-468: (manufacturer: Nanjing CoBioer Biosciences Co., Ltd.), a triple-negative breast cancer cell.
Herein, the culture medium of MCF-7, TamR-MCF-7, MCF-7 ER^D538G, and MCF-7 ER^Y537S was EMEM; • the culture medium of MDA-MB-231 and MDA-MB-468 was DMEM.
2. Reagents • Culture medium EMEM (Gibco, 1964507) • Culture medium DMEM (Gibco, 12430-054) • Fetal bovine serum (Gibco, 10091148) • Penicillin-streptomycin double antibody (Gibco, S110JV) • DPBS (Gibco, 14190-144) • CellTiter-Glo® assay kit (Promega, G7573) • Trypsin (0.25%) (Gibco, 25200-056) • DMSO (Sigma, D2650)
3. Instruments • Biosafety cabinet (AIRTECH, BSC-1300A II) • Automated cell counter (Life Technologies, countess II) • Multifunctional microplate reader (Biotek, H1FM) • Orbital shaker (Hangzhou Allsheng Instruments Co., Ltd., OS-100) • XLFIT 5.3 (Inforstack Shanghai Co., Ltd.)
For this test method, the following experiments were performed in a biosafety cabinet, with the specific steps as follows: • (1) Cells were inoculated in a 96-well plate. One day later, the previous culture medium was poured off, 5 mL of DPBS was added to wash the cells, and then DPBS was pipetted and discarded. An appropriate amount of trypsin was then added. The plate was digested in a 37° C., 5% CO2 cell incubator for about 2 to 5 minutes and then taken out. Anew corresponding culture medium was added, and pipetted up and down to resuspend the cells evenly. The cells were then counted using an automated cell counter. • (2) Each cell was inoculated in columns 1 to 11 of a 96-well plate (Corning, Cat. No.: 3610) at a density of 1,000 or 2,000 cells per well in 100 μL of culture medium, and 100 μL of the corresponding culture medium without cells was added to the wells in column 12. The plate was then placed in a 37° C., 5% CO2 incubator for 24 hours. • (3) The compound of the present disclosure and the control drug fulvestrant (Selleck; Cat. No.: S1191) were then 4-fold serially diluted to 10 dose points starting at 10 μM. 10 μL of the serially diluted compound was pipetted and added to 100 μL of cells in columns 1 to 10, and 10 μL of the corresponding culture medium containing 0.33 v % DMSO was added to both columns 11 and 12. The plate was incubated in a 37° C., 5% CO2 incubator for 6 days or 72 hours (Note: column 11 was used as a MAX well with cells but without compound; column 12 was used as a MIN well without cells […]). • (4) The cell viability detection reagent in the CellTiter-Glo® assay kit was then added to the 96-well plate at 50 μL per well according to the instructions, and shaken on an orbital shaker in the dark for 5 to 10 minutes. The cell viability was then measured using a multifunctional microplate reader. Finally, the inhibition of cell proliferation by the compound of the present disclosure was plotted by XLFIT software, and the IC50 value (half inhibitory concentration) and the IH % max (maximum inhibition percentage) of the compound of the present disclosure were calculated.
Compounds D64 to D69 were tested for MDA-MB-231 (CTG) and MDA-MB-468 (CTG) with an incubation time of 72 hours in the incubator.

MDA-MB-468 = test: CellTiter-Glo cell proliferation inhibition, MDA-MB-468; type: cell-based; settings: Homo sapiens, 144 h, MDA-MB-468 (CTG), 6 days, starting concentration 10 μM; for inhibition at up to 10 µM: read-out: IH % max (maximum inhibition percentage)
estrogen receptor = target: T1, estrogen receptor (Homo sapiens, UniProt P03372); settings: background section; cited from earlier work
T1 sequence (P03372 1-595): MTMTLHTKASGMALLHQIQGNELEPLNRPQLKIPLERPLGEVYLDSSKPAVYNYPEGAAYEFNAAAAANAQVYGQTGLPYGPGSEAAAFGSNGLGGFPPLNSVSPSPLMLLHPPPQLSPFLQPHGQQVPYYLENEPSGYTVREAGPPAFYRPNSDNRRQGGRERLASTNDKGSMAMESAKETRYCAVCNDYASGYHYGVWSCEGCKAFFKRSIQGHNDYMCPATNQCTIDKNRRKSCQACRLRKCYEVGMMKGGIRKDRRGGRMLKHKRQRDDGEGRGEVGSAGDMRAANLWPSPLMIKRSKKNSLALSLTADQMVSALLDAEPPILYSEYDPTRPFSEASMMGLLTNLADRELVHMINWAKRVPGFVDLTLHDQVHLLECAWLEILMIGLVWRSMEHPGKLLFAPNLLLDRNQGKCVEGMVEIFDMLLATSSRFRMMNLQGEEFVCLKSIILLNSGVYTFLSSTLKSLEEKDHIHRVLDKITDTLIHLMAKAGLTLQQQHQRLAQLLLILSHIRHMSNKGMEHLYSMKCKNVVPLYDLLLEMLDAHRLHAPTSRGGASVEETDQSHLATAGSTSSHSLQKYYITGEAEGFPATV

IC50 (MCF-7) [nM] | IC50 (TamR-MCF-7) [nM] | IC50 (MCF-7 ER^D538G) [nM] | IC50 (MCF-7 ER^Y537S) [nM] | IC50 (MDA-MB-231) [nM] | IC50 (MDA-MB-468) [nM] | SMILES | inhibition at up to 10 µM (MCF-7) [%] | inhibition at up to 10 µM (TamR-MCF-7) [%] | inhibition at up to 10 µM (MCF-7 ER^D538G) [%] | inhibition at up to 10 µM (MCF-7 ER^Y537S) [%] | inhibition at up to 10 µM (MDA-MB-231) [%] | inhibition at up to 10 µM (MDA-MB-468) [%] | maximum protein degradation rate (estrogen receptor)
– | – | – | – | – | – | CN(CCOCCN1CCN(c2ccc3c(c2)CN(C2CCC(=O)NC2=O)C3=O)CC1)CCOc1ccc(Oc2c(-c3ccc(S(C)(=O)=O)cc3)ccc3cc(O)ccc23)cc1 (stereo not shown) [Compound D10, 3-(5-(4-(2-(2-((2-(4-((6-hydroxy-2-(4-(methylsulfonyl)phenyl)naphthalen-1-yl)oxy)phenoxy)ethyl)methylamino)ethoxy)ethyl)piperazin-1-yl)-1-oxoisoindolin-2-yl)piperidine-2,6-dione] | 40 | 36 | 67 | 54 | 38 | 68 | –
27.7 | 37.4 | 88.4 | 968 | 5.1 | 5.8 | CS(=O)(=O)c1ccc(-c2ccc3cc(O)ccc3c2Oc2ccc(OCCN3CCN(c4ccc5c(c4)CN(C4CCC(=O)NC4=O)C5=O)CC3)cc2)cc1 (stereo not shown) [Compound D2, 3-(5-(4-(2-(4-((6-hydroxy-2-(4-(methylsulfonyl)phenyl)naphthalen-1-yl)oxy)phenoxy)ethyl)piperazin-1-yl)-1-oxoisoindolin-2-yl)piperidine-2,6-dione] | 100 | 94 | 93 | 80 | 100 | 99 | –
– | – | 448 | – | – | – | CCN(CCOCCOCCOc1ccc2c(c1)C(=O)N(C1CCC(=O)NC1=O)C2=O)CCOc1ccc(Oc2c(-c3ccc(S(C)(=O)=O)cc3)ccc3cc(O)ccc23)cc1 (stereo not shown) [Compound D24, 2-(2,6-dioxopiperidin-3-yl)-5-(2-(2-(2-(ethyl(2-(4-((6-hydroxy-2-(4-(methylsulfonyl)phenyl)naphthalen-1-yl)oxy)phenoxy)ethyl)amino)ethoxy)ethoxy)ethoxy)isoindoline-1,3-dione] | 74 | 60 | 93 | 94 | 100 | 62 | –
1.6 | 115 | – | – | – | – | C[C@]12CC[C@@H]3c4ccc(O)cc4C[C@@H](CCCCCCCCC[S+]([O-])CCCC(F)(F)C(F)(F)F)[C@H]3[C@@H]1CC[C@@H]2O (stereo partly shown) [Fulvestrant, fulvestrant, reference compound] | 80.7 | 71.8 | – | – | – | 39.4 | about 61%
